Source: publication PMC5453556, “Designing small molecules to target cryptic pockets yields both positive and negative allosteric modulators” (PLoS ONE, 2017)

Assays:
Type in all cases: biochemical
[1] = molecular target: TEM β-lactamase (TEM, M182T variant) (Escherichia coli, UniProt P62593, M180T); experiment: TEM β-lactamase nitrocefin hydrolysis activity assay (UV-vis, 482 nm); conditions: for % change in rate: 50 µM nitrocefin; for kcat: TEM + 100 µM compound, nitrocefin
TEM L220N = TEM L220N (Escherichia coli, UniProt P62593, L218N/M180T)
chymotrypsin = molecular target: T1, chymotrypsin (Bos taurus, UniProt P00766); experiment: Chymotrypsin reaction, test for non-specific activity (410 nm); conditions: alternative enzyme chymotrypsin; 30 nM enzyme, 200 μM N-succinyl-Ala-Ala-Pro-Phe p-nitroanilide, 25°C
T1 construct: purchased Sigma-Aldrich
Procedure: (§1) Chymotrypsin reactions were followed at 410 nm using 30 nM enzyme and 200 μM N-succinyl-Ala-Ala-Pro-Phe p-nitroanilide at 25°C. β-galactosidase reactions were followed at 420 nm using 4 nM enzyme and 1 mM 2-nitrophenyl β-D-galactopyranoside at 37°C. […] Enzymes and substrates were purchased from Sigma-Aldrich.

β-galactosidase = β-galactosidase reaction, test for non-specific activity (420 nm); conditions: alternative enzyme β-galactosidase; 4 nM enzyme, 1 mM 2-nitrophenyl β-D-galactopyranoside, 37°C
Procedure: as §1

TEM T265V = TEM T265V (Escherichia coli, UniProt P62593, M180T/T261V)
[2] = detergent-dependence: 0.01% Triton-X
[3] = detergent-dependence: 0% Triton-X

| SMILES | % change in rate ([1]; 10x enzyme test: 1 nM TEM) | kcat [1] [s⁻¹] | % change in rate [1, 2] | kcat (TEM L220N) [s⁻¹] | % change in rate (chymotrypsin) [%] | % change in rate (β-galactosidase) | % change in rate ([1]; 10x enzyme test: 10 nM TEM) | % modulation of kcat / Km ([1]; TEM, 100 µM compound vs no compound) [%] | decrease of kcat/Km ([1]; TEM, as worded in the text (decreasing kcat/Km by)) [%] | % change in rate [1, 3] | kcat (TEM T265V) [s⁻¹] |
| --- | --- | --- | --- | --- | --- | --- | --- | --- | --- | --- | --- |
| Oc1ccc(CC[C@H]2CC[C@H](c3ccc(O)cc3)CO2)cc1 (relative stereo) [compound 1] | +65% | 527 ± 8 | +66% | 5.2 ± 0.3 | -5 | +2% | – | – | – | – | – |
| COc1cccc(C(=O)C[C@@H](c2ccccc2)C(C)(C)[N+](=O)[O-])c1 (racemic) [compound 3] | -47% | 256 ± 28 | -45% | – | -2 | +3% | -48% | -59 | 59 | -40% | – |
| c1nc(NCCCN2CCOCC2)c2c3c(sc2n1)CCCC3 [compound 2] | +38% | 334 ± 5 | +33% | – | -1 | +5% | +33% | – | – | +30% | 307 ± 17 |
